Among the data in PubChem BioAssay (NCI) are GI50 and TGI values, retold here.

Assay in all cases: NCI anticancer screen, dose series, 48 h
The test system of test [1] is SR leukemia.
Test [2] relates to TK-10 renal.
Test [3] deals with UO-31 renal.
In test [4] the test system is SK-MEL-5 melanoma.
Test [5] relates to MDA-MB-231 breast.
Test [6] relates to OVCAR-3 ovarian.
Test [7] deals with K-562 leukemia.
The test system of test [8] is SK-OV-3 ovarian.
Test [9] relates to HCT-15 colon.

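Results reflect a 48-hour exposure of cells in 96-well plates to compound at five concentrations. GI50 = concentration required for 50% inhibition of growth. The concentration for full growth arrest is given as TGI.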

In the case of `Nc1c(C(=O)Nc2cccc3ccccc23)sc2nc3c(cc12)CCCC3`, the GI50 in [1] was 0.267 µM; in test [2], 14.6 µM; in test [3], 3.47 µM; in [4], 0.459 µM; in test [5], 5.23 µM; in [6], 0.577 µM. Also, the GI50 was 0.349 µM in test [7], 1.54 µM in test [8] and 0.565 µM in test [9]. The TGI is 6.38 µM in test [1]; above 100 µM in test [2]; above 100 µM in [3]; 10.7 µM in test [4]; above 100 µM in [5]; above 100 µM in [6]. Also, the TGI in test [7], in test [8] and in [9] was above 100 µM each time.

With `COc1cc2ccc(CC#N)cc2cc1OC`, the TGI in test [1], in test [2], in [3], in test [4], in test [7] and in [8] was above 100 µM in each case.

As to `CCOC(=O)CNC(SC)=C(C#N)C#N`, the TGI in [1], in test [2], in test [3], in test [4], in test [6] and in [7] was above 100 µM in each case. For the same compound, the TGI in test [8] and in [9] was above 100 µM each time.

For the compound `CC(C)O/C=C1\C(=O)C2(SCCS2)[C@H]2CCCC[C@@H]12`, the TGI in test [1], in [2], in test [3], in test [4], in test [7] and in test [8] was above 100 µM each time. Moreover, the TGI in test [9] is above 100 µM.

Consider `O=C(N/C(=C\c1ccc([N+](=O)[O-])cc1)c1nc2[nH]c(=S)[nH]c(=O)c2[nH]1)c1ccccc1`, for which the TGI in test [1], in test [2], in test [3], in test [4], in test [6] and in [7] was above 100 µM each time. Further, the TGI in [8] and in test [9] was above 100 µM each time.

Turning to `CSC(=S)N(C)NC(=O)c1cccc(C(=O)NN(C)C(=S)SC)n1`, the TGI in [1], in test [4], in test [7] and in test [9] was above 100 µM in each case.

Take `COc1cc(NCC(C#N)C#N)ccc1N=Nc1ccc([N+](=O)[O-])cc1`: the TGI in test [1], in [2], in [3], in test [4], in test [6] and in test [7] was above 100 µM in each case. For the same compound, the TGI in test [8] and in test [9] was above 100 µM each time.

Take `Cn1c(=O)c(C(c2ccccc2)c2c(O)c3ccccc3n(C)c2=O)c(O)c2ccccc21`: the TGI in test [1], in test [2], in [3], in test [4], in [6] and in test [7] was above 100 µM in each case. In test [8], this compound yielded a TGI above 100 µM.

Regarding `O=C1c2cnccc2Cc2cccc3c2N1c1ccccc1S3`, the TGI was 34.8 µM in test [1]; 39 µM in [4]; 44.5 µM in test [6]; above 100 µM in test [7]; above 100 µM in test [9].

`O=C1C2C(C(=O)[N]1[Hg][c]1ccccc1)C1(Cl)C(Cl)=C(Cl)C2(Cl)C1(Cl)Cl` (stereo unspecified): the GI50 in test [1] was 0.41 µM; in test [2], 1.51 µM; in [3], 1.73 µM; in [4], 1 µM; in [6] it was 0.229 µM; in [7], 1.36 µM. Also, the GI50 in [8] is 1.87 µM; in test [9] it was 0.583 µM. The TGI in test [1] turned out to be 3.46 µM; in test [2], 2.86 µM; in test [3] it was 3.57 µM; in test [4], 2.17 µM; in test [6], 0.467 µM; in test [7] it was 11.4 µM. For the same compound, the values for the TGI in test [8] and in test [9] were 5.17 µM and 2.2 µM, respectively.

As to `COc1cc(C2[C@H]3C(=O)N(c4ccc(Cc5ccc(N6C(=O)[C@@H]7ON(c8ccccc8)C(c8cc(OC)c(OC)c(OC)c8)[C@@H]7C6=O)cc5)cc4)C(=O)[C@H]3ON2c2ccccc2)cc(OC)c1OC` (stereo partly specified), the TGI in test [1], in test [2], in test [3], in [4], in test [6] and in test [7] was above 100 µM each time. The TGI in test [8] and in test [9] was above 100 µM each time.

Turning to `Cc1cn(C2C=CC(=O)C(C)O2)c(=O)[nH]c1=O` (stereo unspecified), the TGI in [1] came to 43.8 µM; in test [2] it was 28.5 µM; in [3], 27.7 µM; in test [4], 28.1 µM; in test [6], 31.4 µM; in [7], 36.9 µM. Moreover, the TGI in [8] was above 100 µM.

`COc1ccc(-c2cc(-c3ccccc3)c(C#N)c(=O)[nH]2)cc1`: the TGI in test [1], in test [2], in [3], in test [4], in test [6] and in test [7] was above 100 µM throughout. In addition, the TGI in test [8] and in test [9] was above 100 µM throughout.

In the case of `O=C1c2c(c3c4ccccc4n4c3c3c2c2ccccc2n3C/C=C\C4)C(=O)N1Cc1ccccc1`, the TGI in [1], in test [2], in test [3], in [4], in [6] and in [7] was above 100 µM each time. Moreover, the TGI in test [8] and in test [9] was above 100 µM in each case.

Consider `CN(C)c1nc(N(C)C)nc(N(C)CN(C)c2nc(N(C)C)nc(N(C)C)n2)n1`, for which the TGI in [1], in [2], in test [3], in [4], in test [6] and in test [7] was above 100 µM in each case. For the same compound, the TGI in [8] and in test [9] was above 100 µM in each case.
